Here are results for 16 compounds from patent US20240285512A1, “ORAL CARE COMPOSITIONS” (Firmenich SA, priority 2021, published 2024).

Common to all, as to assay type: cell-based
In assay [1] the test system is A. oris, A. naeslundii, S. mitis and S. oralis. Briefly: Bacteria adhesion assay, defined inocula (MBEC pegs, saliva pellicle, CFU plating). The note with it: for inhibition at 0.01 % / inhibition at 10000 µM / inhibition at 0.1 %: relative CFU with base designated as 100, read-out: Adhesion Δ (difference in relative biofilm abundance between control base and treatment); for Adhesion Δ (difference in relative biofilm abundance between control base and treatment): relative CFU with base designated as 100. The protocol:
(§1) A total of 12 bacterial strains were selected based on scientific literature. The strains were grown in media recommended by strain suppliers. Broth cultures were adjusted to log 7 CFU/mL with growth media containing 20% of glycerol. For C. matruchotii growth medium with glycerol was used to wash off the colonies culture plates, the cell suspension was then homogenized by vortexing with glass beads. The aerobic and anaerobic strains were mixed and aliquoted separately. The inocula were stored at −80° C. until use.
(§2) Saliva and oral inocula preparation. Saliva and oral microflora samples were collected from healthy volunteers by passive drooling using a method described previously. • (a) Bacteria Adhesion assay. Pegs of 96-well MBEC plate (Innovotech, Canada) were submerged in saliva for pellicle formation. Overnight culture of A. oris, A. naeslundii, S. mitis and S. oralis were normalized to OD=0.1 using 0.85% NaCl and mixed in equal proportions. The plates were treated with samples for 2 min and incubated with the culture mixture for 30 min at 37° C. and 5% CO2. The pegs on 96-well plates were then washed 3 times before harvest. • (b) Biofilm formation assay. Saliva-coated 96-well MBEC plates were incubated with inocula anaerobically overnight. The next day, the inoculum was replaced with modified BHI broth (BHI supplemented with 1 g/L mucin, 0.5 mg/L Vitamin K and 10 mg/L hemin). The devices were treated for 2 min twice to mimic the application of dental care products, after which the treatment solution was replaced with fresh modified BHI broth and incubation of the devices was continued. The biofilms were harvested after two days. • (c) Biofilm disruption assay. The inoculation and incubation was done in the same manner as described in the formation assay except that the incubation time was extended to 7 days, after which the mature biofilm was subjected to treatment twice a day as in the formation assay for 3 days before harvest.
(§3) Biofilm harvest. To harvest the attached cells, the peg of the MBEC device was immersed in 200 μL of saline solution per well. The plates were sonicated in an ultrasonic bath to obtain cell suspension. For the adhesion assay, the suspension was serially diluted and plated on Tryptic Soy Agar using Microlab STAR (Hamilton). For the formation and disruption assays, the suspension was used for SYTO 9 staining using LIVE/DEAD® BacLight Bacterial Viability Kits L7012 (Thermo Fisher Scientific) following manufacturer instructions.
(§4) The inventors used the assays described above to screen more ingredients for activity in a model mouth wash (Table 5).
(§5) The compounds and compositions for testing activities in Table 6 were dissolved in DMSO. The rest of the ingredients of mouth rinse in Table 5 were mixed to make a master mix in water and then aliquoted. The DMSO solution was then added to the master mix and homogenized.

Assay [2] has as its system biofilm of defined inocula (12 bacterial strains of Table 1). Description: Biofilm formation assay, defined inocula (MBEC plates, SYTO 9 fluorescence). The settings on record: for inhibition at 0.01 % / inhibition at 10000 µM / inhibition at 0.1 %: read-out: Formation Δ (difference in relative biofilm abundance between control base and treatment); for inhibition at 0.1 %: dosage 0.1%. Here is the method: as §1, §2, §3, §4, §5

Assay [3] relates to mature biofilm of defined inocula (12 bacterial strains of Table 1). Briefly: Biofilm disruption assay, defined inocula (7-day mature biofilm, SYTO 9 fluorescence). The settings on record: for inhibition at 0.01 % / inhibition at 10000 µM / inhibition at 0.1 %: read-out: Disruption Δ (difference in relative biofilm abundance between control base and treatment); for inhibition at 0.1 %: dosage 0.1%. The protocol:
as §1, §2, §3, §4, §5

Where [4] appears, read: dosage 0.01%, defined inocula, relative fluorescence intensity with base designated as 100.
Where [5] appears, read: dosage 10 mM in model mouth rinse with DMSO.
Setting [6] is: dosage 10 mM in model mouth rinse with DMSO, defined inocula, relative fluorescence intensity with base designated as 100.
[7] abbreviates: defined inocula, relative fluorescence intensity with base designated as 100.

Where two headings read alike, the source gives them in different places.

Turning to `CCC=CCCOC(C)=O` [3-HEXENYL ACETATE, 3-hexenyl acetate], the results for the inhibition at 0.01 % in assay [1] (dosage 0.01%), in assay [2] (setting [4]) and in assay [3] (setting [4]) were 32.7%, 78.1% and 64.7%, respectively.
Regarding `CC=Cc1ccc(OC)cc1` [Anethole], the values for the inhibition at 10000 µM in assay [1] (setting [5]), in assay [2] (setting [6]) and in assay [3] (setting [6]) were 17.4%, 53.4% and 77.4%, respectively.
Turning to `CC(=O)/C=C/C1=C(C)CCCC1(C)C` [BETA IONONE, (3E)-4-(2,6,6-Trimethylcyclohex-1-en-1-yl)but-3-en-2-one], the inhibition at 0.01 % is 19.4% in assay [1] (dosage 0.01%), 80.8% in assay [2] (setting [4]) and 61.8% in assay [3] (setting [4]).
For `O=CC=Cc1ccccc1` [Cinnamaldehyde], the inhibition at 0.1 % in assay [1] (dosage 0.1%) is -9.1%; in assay [2] (setting [7]), 83.3%; in assay [3] (setting [7]), 48.2%.
For the compound `CC(C)=CCCC(C)CCO` (centres unmarked) [Citronellol], the inhibition at 10000 µM in assay [1] (setting [5]) turned out to be 91.7%; in assay [2] (setting [6]), 58.1%; in assay [3] (setting [6]), 67%.
As to `CCCCCCCCCC(=O)O` [Decanoic acid], the figures for the inhibition at 10000 µM in assay [2] (setting [6]) and in assay [3] (setting [6]) were 93.3% and 89.8%, respectively.
Consider `CC(C)=CCC/C(C)=C/CO` [GERANIOL, Geraniol], for which the inhibition at 0.01 % in assay [1] (dosage 0.01%) worked out at 32.1%; in assay [2] (setting [4]), 84.7%; in assay [3] (setting [4]), 61.7%.
In the case of `CC(C)CCO` [ISOAMYL ALCOHOL, Isoamyl alcohol], the inhibition at 0.1 % in assay [1] (dosage 0.1%) is 63.7%; in assay [2] (setting [7]), 82.3%; in assay [3] (setting [7]), 57.4%.
As to `CCCCCC1C(=O)CCC1CC(=O)OC` (centres unmarked) [Methyl (2-pentyl-3-oxocyclopentyl) acetate], the “Adhesion Δ (difference in relative biofilm abundance between control base and treatment)” value in assay [1] (dosage 0.01%) stood at 37.1. Moreover, in assay [2] (setting [4]), the “Formation Δ (difference in relative biofilm abundance between control base and treatment)” value worked out at 86.3. For the same compound, the “Disruption Δ (difference in relative biofilm abundance between control base and treatment)” value in assay [3] (setting [4]) turned out to be 63.2.
With `CCCCCCCCCCCCCC(=O)O` [Myristic Acid, Myristic acid], the results for the inhibition at 10000 µM in assay [1] (setting [5]), in assay [2] (setting [6]) and in assay [3] (setting [6]) were 33.3%, 64.9% and 87.9%, respectively.
In the same order, the values of `C=C(C)[C@@H]1CCC2=CC(=O)C[C@@H](C)[C@]2(C)C1` [Nootkatone] are 86.4%, 20.3% and 63.1%.
In the case of `CCCCC1CCC(=O)O1` (centres unmarked) [OCTALACTONE, Gamma octalactone], the “Adhesion Δ (difference in relative biofilm abundance between control base and treatment)” value in assay [1] (dosage 0.01%) was determined as 63.5. In assay [2] (setting [4]), the “Formation Δ (difference in relative biofilm abundance between control base and treatment)” value was found to be 89.1. In assay [3] (setting [4]), the “Disruption Δ (difference in relative biofilm abundance between control base and treatment)” value is recorded as 74.1.
`Cc1ccc(C(C)C)c(O)c1` [THYMOL, Thymol]: the values for the inhibition at 0.1 % in assay [1] (dosage 0.1%), in assay [2] (setting [7]) and in assay [3] (setting [7]) were 5.7%, 86.7% and 72%, respectively.
Regarding `CC/C=C\CCOC(=O)CCCCC` [cis-3-hexenylhexanoate], the “Adhesion Δ (difference in relative biofilm abundance between control base and treatment)” value in assay [1] (setting [5]) came out at 9.1. Also, the “Formation Δ (difference in relative biofilm abundance between control base and treatment)” value in assay [2] (setting [6]) came out at 58.1. The “Disruption Δ (difference in relative biofilm abundance between control base and treatment)” value in assay [3] (setting [6]) is recorded as 75.3.
Turning to `CCCCCCCCCCC(=O)O` [undecanoic acid, Undecanoic acid], the inhibition at 10000 µM in assay [1] (setting [5]) is 98.8%; in assay [2] (setting [6]), 87.5%; in assay [3] (setting [6]), 89.1%.
As to Butanol, the “Adhesion Δ (difference in relative biofilm abundance between control base and treatment)” value in assay [1] (dosage 0.1%) was determined as 56.8. Moreover, in assay [2], the “Formation Δ (difference in relative biofilm abundance between control base and treatment)” value was 83.5. In assay [3], the “Disruption Δ (difference in relative biofilm abundance between control base and treatment)” value is given as 59.5.
